In patent publication EP4603105A1, “PHARMACEUTICAL COMPOSITION CONTAINING CYCLIC COMPOUND HAVING SELECTIVE KRAS INHIBITORY EFFECT AGAINST HRAS AND NRAS” (CHUGAI SEIYAKU KABUSHIKI KAISHA, priority 2022, dated 2024):
*1 amine or outer side, *2 acyl side, *3 side chain or, on linkers, in order; H or OH if unused. Where a SMILES comes first, the peptide text is derived from it. Bridges are numbered along the chain shown (N, C = ends). [ ]: non-standard residue; d: D form. The star is where a group is joined. hPhe(3-Cl-4-CF3) = N[C@@H](CCc1ccc(C(F)(F)F)c(Cl)c1)C(=O)O; NPrPhe(4-CF3) = CCCN[C@@H](Cc1ccc(C(F)(F)F)cc1)C(=O)O; X5 = Cc1ccc(C[C@@H](C(=O)[*:2])N(CCC(C)(C)C)[*:1])cc1; Abu(4,4,4-F3) = N[C@@H](CC(F)(F)F)C(=O)O; NMeGly(cPent) = CN[C@H](C(=O)O)C1CCCC1; NMeF = CN[C@@H](Cc1ccccc1)C(=O)O; NMeD = CN[C@@H](CC(=O)O)C(=O)O; NMeL = CN[C@@H](CC(C)C)C(=O)O; Morpholide = C1CN(*)CCO1; NMeA = CN[C@@H](C)C(=O)O; Ac5c = NC1(C(=O)O)CCCC1; Aze = O=C(O)[C@@H]1CCN1; Sar = CNCC(=O)O

Key:
[1] = target: GDP-bound KRAS wild-type protein (Homo sapiens, UniProt P01116); assay: Binding to KRAS by surface plasmon resonance (SPR), dissociation constant KD
Procedure, shortened: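 Single-cycle kinetics on GDP-loaded biotin-Avi RAS captured to ~100–300 RU; 75 s ascending injections, 100 µL/min, 30°C. HBS pH 7.4 + 10 mM MgCl2/10 µM GDP/4% DMSO. 1:1 fit, KD.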

[2] = target: HRAS wild-type protein (Homo sapiens, UniProt P01112); assay: Binding to HRAS by surface plasmon resonance (SPR), KD and KD ratio to KRAS
Procedure, shortened: (§1)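 GDP-loaded biotinylated Avi-tag RAS proteins (E. coli-expressed) captured on a Biotin CAPture chip at ~100–300 RU; single-cycle kinetics at 30°C, 100 µL/min, 75 s injections of rising compound concentrations. HBS pH 7.4 running buffer with 1 mM DTT, 10 mM MgCl2, 10 µM GDP, 4% DMSO. KD from 1:1 binding fit.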

[3] = tested on: human lung cancer strain NCI-H441; type: cell-based
Procedure, shortened: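 Readout: […] after the ATP-based reagent. Compound: serial dilutions in dimethyl sulfoxide.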

[4] = target: GDP-bound NRAS wild-type protein (Homo sapiens, UniProt P01111); assay: Binding to NRAS by surface plasmon resonance (SPR), KD and KD ratio to KRAS
Procedure, shortened: as §1

[5] = Single Cycle Kinetics, 1:1 binding model
[6] = ratio of the KD value with respect to HRAS wild-type protein to the KD value with respect to KRAS
[7] = ratio of the KD value with respect to GDP-bound NRAS wild-type protein to the KD value with respect to KRAS
[8] = ratio of KD for HRAS wild-type protein to KD for KRAS
[9] = ratio of KD for GDP-bound NRAS wild-type protein to KD for KRAS

Chain of HRAS wild-type protein (P01112 whole entry): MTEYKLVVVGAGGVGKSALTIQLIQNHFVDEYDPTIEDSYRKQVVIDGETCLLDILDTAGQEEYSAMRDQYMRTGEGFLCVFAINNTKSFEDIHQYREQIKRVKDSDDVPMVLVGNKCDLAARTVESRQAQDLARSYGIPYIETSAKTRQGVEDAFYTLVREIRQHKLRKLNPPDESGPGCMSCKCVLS
Chain of GDP-bound NRAS wild-type protein (P01111 whole entry): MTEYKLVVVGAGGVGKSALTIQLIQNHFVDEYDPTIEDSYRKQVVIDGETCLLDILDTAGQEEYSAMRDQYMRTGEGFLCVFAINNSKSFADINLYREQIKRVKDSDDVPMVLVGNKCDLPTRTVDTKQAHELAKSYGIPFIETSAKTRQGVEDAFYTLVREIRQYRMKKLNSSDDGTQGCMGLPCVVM
Chain of GDP-bound KRAS wild-type protein (P01116 1-188 isoform P01116-2): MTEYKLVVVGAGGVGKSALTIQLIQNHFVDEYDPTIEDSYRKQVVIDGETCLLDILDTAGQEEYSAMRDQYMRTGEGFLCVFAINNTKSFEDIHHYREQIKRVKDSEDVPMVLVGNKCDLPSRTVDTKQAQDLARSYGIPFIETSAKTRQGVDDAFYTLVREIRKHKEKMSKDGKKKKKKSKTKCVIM

SMILES | Kd [1, 5] [nM] | HRAS /KRAS [2, 6] | IC50 [3] [nM] | NRAS /KRAS [4, 7] | Kd ([1]; 1:1 binding model) [nM] | HRAS /KRAS [2, 8] | NRAS /KRAS [4, 9] | Kd ([1]; Single Cycle Kinetics) [nM]
CC[C@H](C)[C@@H]1NC(=O)[C@H](CC)N(C)C(=O)C[C@@H](C(=O)N(C)C)N(C)C(=O)[C@H](C2CCCC2)N(C)C(=O)C2(CCC2)NC(=O)[C@@H]2CCN2C(=O)[C@H](CCc2cc(F)c(C(F)(F)F)c(F)c2)NC(=O)CN(C)C(=O)[C@H](Cc2ccc(C(F)(F)F)cc2)N2CCCCC[C@@H](C2=O)N(C)C(=O)CN(C)C1=O [PP0654] | 2 | B (a compound having 3 or more and less than 10 is denoted as B) | 690 | B (a compound having 3 or more and less than 10 is denoted as B) | – | – | – | –
CCO[C@@H]1C[C@H]2C(=O)NC3(CC(C)(C)C3)C(=O)N(C)[C@@H](C3CCCC3)C(=O)N(C)[C@H](C(=O)N(C)C)CC(=O)N(C)[C@@H]([C@@H](C)OC)C(=O)N[C@@H]([C@@H](C)CC)C(=O)N(C3CC3)CC(=O)N(C)[C@H]3C/C=C\CCN(C3=O)[C@@H](Cc3ccc(C(F)(F)F)cc3)C(=O)N(C)CC(=O)N[C@@H](CCc3ccc(C(F)(F)F)c(OC)c3)C(=O)N2C1 [PP3200] | – | – | 7.1 | – | 0.21 | A (a compound having 10 or more and less than 20 is denoted as A) | A (a compound having 10 or more and less than 20 is denoted as A) | –
CC[C@H](C)[C@@H]1NC(=O)[C@H](CC(C)C)N(C)C(=O)C[C@@H](C(=O)N(C)C)N(C)C(=O)[C@H](C2CCCC2)N(C)C(=O)C2(CCCC2)NC(=O)[C@@H]2CCCN2C(=O)[C@H](CCc2ccc(C(F)(F)F)c(Cl)c2)NC(=O)CN(C)C(=O)[C@H](Cc2ccc(F)cc2)N2CCCCC[C@@H](C2=O)N(C)C(=O)CN(C)C1=O [PP0971] | – | – | 54 | – | – | B (a compound having 3 or more and less than 10 is denoted as B) | B (a compound having 3 or more and less than 10 is denoted as B) | 0.34
CC[C@H](C)[C@@H]1NC(=O)[C@H](CC(C)C)N(C)C(=O)C[C@@H](C(=O)N2CCOCC2)N(C)C(=O)[C@H](C2CCCC2)N(C)C(=O)C2(CCC2)NC(=O)[C@@H]2C[C@@H](OCC3CC3)CN2C(=O)[C@H](CCc2cc(F)c(C(F)(F)F)c(F)c2)NC(=O)CN(C)C(=O)[C@H](Cc2ccc(C(F)(F)F)cc2)N2CCCC[C@@H](C2=O)N(C)C(=O)CN(C)C1=O [PP1000] | – | – | 7.5 | – | – | B (a compound having 3 or more and less than 10 is denoted as B) | B (a compound having 3 or more and less than 10 is denoted as B) | 0.039
CCCN1C(=O)[C@@H]2CCN2C(=O)[C@H](Cc2ccccc2)N(C)C(=O)[C@H]([C@@H](C)CC)NC(=O)[C@H](CC(C)C)N(C)C(=O)C[C@@H](C(=O)N2CCOCC2)N(C)C(=O)[C@H](C2CCCC2)N(C)C(=O)C2(CCCC2)NC(=O)[C@@H]2CCCN2C(=O)[C@H](CCc2ccc(C(F)(F)F)c(Cl)c2)NC(=O)CN(C)C(=O)[C@@H]1Cc1ccc(C(F)(F)F)cc1 [PP0209] ([NMeL]I[NMeF][Aze][NPrPhe(4-CF3)][Sar][hPhe(3-Cl-4-CF3)]P[Ac5c][NMeGly(cPent)][NMeD]-Morpholide; lactam N-11) | – | – | 569 | – | 110 | C (A compound having a KD ratio of 0.1 or more and less than 3 is denoted as C) | C (A compound having a KD ratio of 0.1 or more and less than 3 is denoted as C) | –
CCO[C@@H]1C[C@H]2C(=O)NC3(CCC3)C(=O)N(C)[C@@H](C3CCCC3)C(=O)N(C)[C@H](C(=O)N3CCOCC3)CC(=O)N(C)[C@@H](CC(C)C)C(=O)N[C@@H](C3CC(F)(F)C3)C(=O)N(C)CC(=O)N(C)[C@H]3CCCCCN(C3=O)[C@@H](Cc3ccc(C(F)(F)F)cc3)C(=O)N(C)CC(=O)N[C@@H](CCc3cc(F)c(C(F)(F)F)c(F)c3)C(=O)N2C1 [PP0816] | – | – | 92.5 | – | – | B (a compound having 3 or more and less than 10 is denoted as B) | A (a compound having 10 or more and less than 20 is denoted as A) | 0.5
CCC(CC)[C@H]1C(=O)N(C)[C@H](C(=O)N(C)C)CC(=O)N(C)[C@@H](COC)C(=O)N[C@@H]([C@@H](C)CC)C(=O)N(C)CC(=O)N(C)[C@H]2C/C=C\CCN(C2=O)[C@@H](Cc2ccc(C)cc2)C(=O)N(C)CC(=O)N[C@@H](CCc2cc(F)c(C(F)(F)F)c(F)c2)C(=O)N2CCCCC[C@H]2C(=O)NC2(CC(C)(C)C2)C(=O)N1C [PP2960] | – | – | 8.9 | – | 0.32 | A (a compound having 10 or more and less than 20 is denoted as A) | A (a compound having 10 or more and less than 20 is denoted as A) | –
CCCN1C(=O)CN(C)C(=O)[C@@H]2CCN2C(=O)[C@H](CC(F)(F)F)NC(=O)[C@H](CC(C)C)N(C)C(=O)C[C@@H](C(=O)N2CCOCC2)N(C)C(=O)[C@H](C2CCCC2)N(C)C(=O)C2(CCCC2)NC(=O)[C@@H]2CCCN2C(=O)[C@H](CCc2ccc(C(F)(F)F)c(Cl)c2)NC(=O)CN(C)C(=O)[C@@H]1Cc1ccc(C(F)(F)F)cc1 [PP0304] ([NMeL][Abu(4,4,4-F3)][Aze][Sar][NPrPhe(4-CF3)][Sar][hPhe(3-Cl-4-CF3)]P[Ac5c][NMeGly(cPent)][NMeD]-Morpholide; lactam N-11) | – | – | 112 | – | 1.9 | B (a compound having 3 or more and less than 10 is denoted as B) | B (a compound having 3 or more and less than 10 is denoted as B) | –
CCCN(C)C(=O)[C@@H]1CC(=O)N(C)[C@@H](C2CC2)C(=O)N[C@@H]([C@@H](C)CC)C(=O)N(C)CC(=O)N(C)[C@H]2C/C=C\CCN(C2=O)[C@@H](Cc2ccc(C(F)(F)F)cc2)C(=O)N(C)CC(=O)N[C@@H](CCc2cc(F)c(C(F)(F)F)c(F)c2)C(=O)N2C[C@H](OCC)C[C@H]2C(=O)NC2(CC(C)(C)C2)C(=O)N(C)[C@@H](C2CCCC2)C(=O)N1C [PP2037] | 0.12 | A (a compound having 10 or more and less than 20 is denoted as A) | 16 | A (a compound having 10 or more and less than 20 is denoted as A) | – | – | – | –
CCC[C@H]1C(=O)N[C@@H](C2CCCCC2)C(=O)N(C)CC(=O)N(C)[C@H]2C/C=C\CCN(C2=O)[C@@H](Cc2ccc(C)cc2)C(=O)N(C)CC(=O)N[C@@H](CCc2ccc(C(F)(F)F)c(Cl)c2)C(=O)N2C[C@H](OCC)C[C@H]2C(=O)NC2(CC(C)(C)C2)C(=O)N(C)[C@@H](CC(C)(C)C)C(=O)N(C)[C@H](C(=O)N(C)C)CC(=O)N1C [PP3018] | – | – | 19.1 | – | 0.32 | B (a compound having 3 or more and less than 10 is denoted as B) | A (a compound having 10 or more and less than 20 is denoted as A) | –
CCC[C@H]1C(=O)N[C@@H]([C@@H](C)CC)C(=O)N(CCC)CC(=O)N(C)[C@H]2C/C=C\CCN(C2=O)[C@@H](Cc2ccc(C)cc2)C(=O)N(C)CC(=O)N[C@@H](CCc2ccc(C(F)(F)F)c(OC)c2)C(=O)N2C[C@H](OCC)C[C@H]2C(=O)NC2(CC(C)(C)C2)C(=O)N(C)[C@@H](C2CCCC2)C(=O)N(C)[C@H](C(=O)N(C)C)CC(=O)N1C [PP2054] | 0.41 | A (a compound having 10 or more and less than 20 is denoted as A) | 8.5 | A (a compound having 10 or more and less than 20 is denoted as A) | – | – | – | –
CC[C@H](C)[C@@H]1NC(=O)[C@H](CC(C)C)N(C)C(=O)C[C@@H](C(=O)N2CCOCC2)N(C)C(=O)[C@H](C2CCCC2)N(C)C(=O)C2(CCCC2)NC(=O)[C@@H]2CCCN2C(=O)[C@H](CCc2ccc(C(F)(F)F)c(Cl)c2)NC(=O)CN(C)C(=O)[C@H](Cc2ccc(C)cc2)N(CCC(C)(C)C)C(=O)[C@@H]2CCN2C(=O)[C@H](C)N(C)C1=O [PP0087] ([NMeL]I[NMeA][Aze][X5][Sar][hPhe(3-Cl-4-CF3)]P[Ac5c][NMeGly(cPent)][NMeD]-Morpholide; lactam N-11) | – | – | 24 | – | 0.75 | C (A compound having a KD ratio of 0.1 or more and less than 3 is denoted as C) | C (A compound having a KD ratio of 0.1 or more and less than 3 is denoted as C) | –
CCCN1C(=O)[C@H](C2CCCC2)N(C)C(=O)C2(CCC2)NC(=O)[C@@H]2C[C@@H](OCC)CN2C(=O)[C@H](CCc2cc(F)c(C(F)(F)F)c(F)c2)NC(=O)CN(C)C(=O)[C@H](Cc2ccc(C(F)(F)F)cc2)N2CCCC[C@@H](C2=O)N(C)C(=O)CN(C)C(=O)[C@H]([C@@H](C)CC)NC(=O)[C@H](CC)N(C)C(=O)C[C@H]1C(=O)N(C)C [PP0644] | 0.15 | B (a compound having 3 or more and less than 10 is denoted as B) | 20.7 | C (A compound having a KD ratio of 0.1 or more and less than 3 is denoted as C) | – | – | – | –
